Data: ChEMBL document CHEMBL5661955, “ASAP - In vitro cytotoxicity” (2024)
“And” between values parts separate entries of the source, which are not always exact repeats. Equal entries are not always repeated.

How the values were obtained:
[1] = Functional assay to measure dose dependent changes in cell viability from drug treatment in Vero E6 miRFP670 cells (cotreated with P-gp inhibitor, CP100356) that are infected with Dengue virus type 2 New Guinea C. […] Cytotoxicity is reported via via analysis of DAPI count using high-content imager. The assay has been performed by KU Leuven.; format: toxicity, cell-based, Vero C1008; details: chlorocebus sabaeus, p-gp concentration 500 nM
[2] = Functional metabolic assay to measure dose dependent changes in cell viability from drug treatment in Vero E6/TMPRSS2 cells (cotreated with P-gp inhibitor, Elacridar). […] Cytotoxicity is reported via measuring absorbance and analysis of MTT/MTS assays in uninfected cells. The assay has been performed by Icahn School of Medicine at Mount Sinai.; format: toxicity, cell-based, VeroE6/TMPRSS2; details: chlorocebus sabaeus, p-gp concentration 2 uM
[3] = (§1) Functional CPE-based assay to measure dose dependent changes in cell viability from drug treatment in Vero E6 miRFP670 cells. Cells are treated with antiviral candidates that have been serially diluted. Cytotoxicity is reported via analysis of MTS assays in uninfected cells. The assay has been performed by KU Leuven.; format: toxicity, Vero C1008; details: chlorocebus sabaeus
[4] = as §1, with “miRFP670 cells (cotreated with P-gp inhibitor, CP100356).” for “miRFP670 cells.”; format: toxicity, Vero C1008; details: chlorocebus sabaeus
[5] = as §1, with “Huh-7” for “Vero E6 miRFP670”, “of MTT/” for “of”, “National Institute of Allergy and Infectious Diseases.” for “KU Leuven.”; format: toxicity; details: human
[6] = Functional metabolic assay to measure dose dependent changes in cell viability from drug treatment in Vero E6/TMPRSS2 cells. Cells are treated with antiviral candidates that have been serially diluted. Cytotoxicity is reported via measuring absorbance and analysis of MTT/MTS assays in uninfected cells. The assay has been performed by Icahn School of Medicine at Mount Sinai.; format: toxicity, cell-based, VeroE6/TMPRSS2; details: chlorocebus sabaeus; for CC50: Vero E6/TMPRSS2 cells; for CC10: veroe6/tmprss2
[7] = Vero E6/TMPRSS2 cells, with Elacridar (P-gp inhibitor, concentration not stated)
[8] = Vero E6 miRFP670 cells, with CP100356 (P-gp inhibitor, concentration not stated), p-gp concentration 500 nM
[9] = vero c1008, p-gp concentration 500 nM
[10] = with CP100356 (P-gp inhibitor, concentration not stated)

| SMILES | CC50 [2, 7] [µM] | CC10 ([2]; veroe6/tmprss2) | CC50 ([3]; Vero E6 miRFP670 cells) [µM] | CC50 [1, 10] [µM] | CC50 [5] [µM] | CC50 [6] [µM] | CC10 [6] [µM] | also measured |
| --- | --- | --- | --- | --- | --- | --- | --- | --- |
| CC(C)NC(=O)[C@H](Nc1ccc2c(c1)CNC2)c1cc(Cl)cc2[nH]ncc12 | > 50 | > 50 µM | > 50 |  |  |  |  | CC50 ([1]; vero c1008): > 50 µM and 7.69 µM and 29 µM; CC50 [4, 8]: > 50 µM; CC50 [4, 9]: 47.7 µM |
| CCCC[C@H](NC(C)=O)C(=O)N[C@H](C(=O)NCc1ccc(C(N)=O)cc1)c1ccc(OCc2ccccc2)cc1 | > 50 | > 50 µM |  | > 10 | 15 |  |  |  |
| NCCc1ccc([C@H]2C[C@@H]2c2cc(Cl)cc(NC(=O)OCc3ccccc3)c2)cc1 |  |  | 2.43 | 5.29 |  |  |  | CC50 ([1]; vero c1008): 4.57 µM; CC50 [4, 8]: 5.78 µM |
| NCCCc1cccc(NC(=O)c2cc(Cl)cc(NC(=O)OCc3ccccc3)c2)n1 | 14.9 | 0.527 µM | 4.43 |  |  | 6.18 | 6.788 |  |
| CCc1cc(C(=O)Nc2cccc(CN)c2)sc1-c1ccc(Cl)cc1 | 9.12 | 0.452 µM | 4.86 |  |  | 13.9 | 15.317 |  |
| COc1cc(N[C@@H](C(=O)N2CCc3ccc(OC(F)(F)F)cc32)c2ccc(Cl)cc2)cc(OCCCC(=O)O)c1 |  | > 10 µM and 7.237 µM |  |  | 19 |  |  | CC50 ([2]; veroe6/tmprss2): > 10 µM and 37.7 µM; CC50 ([3]; vero c1008): > 50 µM and 19.7 µM and 11.3 µM; CC50 [4, 8]: 11.1 µM |
| O=C(Nc1cc(Cl)cc(C(=O)Nc2cccc(-n3nn[nH]c3=O)c2)c1)OCc1ccccc1 |  |  | > 50 | > 50 |  | > 50 | > 50 |  |
| NCc1cccc(NC(=O)C[C@@H](NC(=O)OCc2ccccc2)c2ccc(OCc3ccccc3)cc2)c1 |  |  |  | > 10 | 6.1 |  |  |  |
| O=C(NCC(F)(F)F)c1cc(Cl)c(F)cc1NS(=O)(=O)c1ccc(Oc2ccccc2Cl)cc1 |  |  | 3.98 | > 10 | 1.9 |  |  | CC50 ([1]; vero c1008): 5.65 µM |
| Cc1cc(-c2ccc([C@@H](NC(=O)OCc3ccccc3)C(=O)Nc3cccc(CN)c3)cc2)cs1 | 21.2 | 0.089 µM |  |  |  | 6.25 | 7.281 |  |
| O=C(O)c1cc(Cl)ccc1NS(=O)(=O)c1ccc(Oc2ccccc2Cl)cc1 |  |  |  |  |  | > 50 | > 50 |  |
| COc1cc(Cc2c(-c3ccc(F)cc3)noc2C)nc(N2CCNCC2)n1 |  |  |  | > 10 | 18 |  |  |  |
| Cc1[nH]c2ccccc2c1CN1CCC(c2c[nH]c3ncccc23)CC1 | > 10 |  | 25.2 | 31 |  | > 50 | > 50 |  |
| Cc1cc(CN)cc(NC(=O)c2cc(Cl)cc(NC(=O)OCc3ccccc3)c2)c1 | > 10 |  |  |  |  | 7.97 | 8.014 | CC50 ([2]; veroe6/tmprss2): 16.6 µM |
| CCCCCC(=O)N[C@H](C(=O)N1CCCCC1)c1ccc(OCc2ccccc2)cc1 |  |  |  | > 10 | 19 |  |  |  |
| O=C(Nc1cc(Cl)cc(C(=O)Nc2ccc(C3CCNCC3)cc2)c1)OCc1ccccc1 |  |  | 2.82 | 3.1 |  |  |  | CC50 [4, 8]: 1.43 µM |
| COc1cc(N[C@@H](C(=O)c2c[nH]c3ccc(OC(F)(F)F)cc23)c2ccc(Cl)cc2OC)cc(S(C)(=O)=O)c1 | > 10 |  |  |  | 5 | > 10 | > 10 | CC50 [4, 8]: 1.49 µM |
| CCCCCC(=O)N[C@H](C(=O)Nc1ccc2[nH]ncc2c1)c1ccc(OCc2ccccc2)cc1 |  |  |  | > 10 | 32 |  |  |  |
| C#C[C@@]1(O)[C@H](O)[C@@H](CO)O[C@H]1n1ccc2c(N)ncnc21 |  |  | > 50 | > 50 |  |  |  | CC50 ([1]; vero c1008): 40.4 µM and 28.2 µM; CC50 [4, 8]: > 50 µM; CC50 [4, 9]: 38 µM |
| CCCCCC(=O)N[C@H](C(=O)Nc1ccc(C(N)=O)cc1)c1ccc(OCc2ccccc2)cc1 |  |  |  | > 10 | 32 |  |  |  |
| CC1(C)Cc2sc(NC(=O)Cc3ccc(S(N)(=O)=O)cc3)c(C#N)c2CN1CC1CCCCC1 |  |  | > 50 |  | 16 |  |  |  |
| O=C(Nc1ccc2c(c1)B(O)OC2)c1cccc(OCc2c(Cl)cccc2Cl)c1 |  |  |  | > 10 | 1.9 | > 50 | > 50 |  |
| c1ccc2sc(C3CCN(Cc4c[nH]c5ccccc45)CC3)nc2c1 | 49.2 |  |  | 5.31 | 18 |  |  | CC50 ([2]; veroe6/tmprss2): > 50 µM |
| O=C(O)c1cc2cc(-c3cc(Cl)cc(C4CC4)c3)ccc2[nH]1 |  |  | 40.7 | 26.5 |  |  |  | CC50 [4, 8]: 35.5 µM |

| SMILES | CC50 [2, 7] [µM] | CC10 ([2]; veroe6/tmprss2) | CC50 ([3]; Vero E6 miRFP670 cells) [µM] | CC50 [1, 10] [µM] | CC50 [5] [µM] | CC50 [6] [µM] | CC10 [6] [µM] | also measured |
| --- | --- | --- | --- | --- | --- | --- | --- | --- |
| CC[C@@H](Cc1nnn[nH]1)c1ccc(NC(=O)c2cc(Cl)cc(NC(=O)OCc3ccccc3)c2)cc1 | > 50 | > 50 µM | > 50 | > 50 |  | > 50 | > 50 |  |
| O=C1Cc2c(cccc2C(=O)Nc2ccc3c(c2)CNC3)N1 |  |  | > 50 | > 50 |  |  |  | CC50 [4, 8]: > 50 µM |
| O=C(Nc1cc(Cl)cc(C(=O)Nc2ccc3c(c2)CNC3)c1)OCc1ccccc1 |  |  | 9.29 | 12.1 |  | 16.6 | 19.011 | CC50 ([2]; veroe6/tmprss2): > 10 µM and 25.1 µM |
| NCc1ccc(-c2ncc(OCC3CCNCC3)nc2-c2ccc(-c3ccoc3)cc2)cc1 | 49.9 | 39.762 µM |  | 1.7 | 5.5 | > 50 | > 50 |  |
| O=C(Nc1cc(Cl)cc(C(=O)NCc2ccc(-c3nnn[nH]3)cc2)c1)OCc1ccccc1 | > 50 | > 50 µM | > 50 | 3.21 |  |  |  |  |
| NCc1ccc(-c2ncc(OCC3CCNCC3)nc2-c2ccc(C3CCOCC3)cc2)cc1 |  |  |  | > 10 | 32 |  |  |  |
| CC(C)c1nc2c(C(=O)Nc3ccc4c(c3)CNC4)cc(Br)cc2[nH]1 | 19.2 | 0.476 µM | 2.65 | 3.63 |  |  |  |  |
| CCc1cc(Br)cc2c(Cc3ccc(-c4nnn[nH]4)cc3)c[nH]c12 |  |  | 19.4 | 23.1 |  |  |  | CC50 ([1]; vero c1008): 18.6 µM; CC50 ([3]; vero c1008): 17.9 µM; CC50 [4, 8]: 21.7 µM |
| NCc1cccc(C(=O)Nc2cc(Cl)cc(NC(=O)OCc3ccccc3)c2)c1 | > 10 |  |  |  |  | 6.67 | 8.366 | CC50 ([2]; veroe6/tmprss2): 19.3 µM |
| O=C(Nc1cc(Cl)cc(-c2ccc3cc(C(=O)O)[nH]c3c2)c1)OCc1ccccc1 |  |  | < 0.391 | 24.8 |  |  |  | CC50 [4, 8]: 38.1 µM |
| NCCc1cccc(NC(=O)[C@H]2[C@H]3CCCCC[C@H]3[C@H]2NC(=O)OCc2ccccc2)c1 | 4.88 | 0.282 µM | 7.48 | 7.53 |  | 1.78 | 2.002 |  |
| CCCCCC(=O)N[C@H](C(=O)NCc1cccc(CN)c1)c1ccc(OCc2ccccc2)cc1 |  |  |  | 2.32 | 18 |  |  |  |
| NCc1cccc(NC(=O)[C@@H](NC(=O)OCc2ccccc2)c2ccc(OCc3ccccc3)cc2)c1 |  |  |  | 5.95 | 18 |  |  |  |
| c1cc(C2CCN(Cc3c[nH]c4ccccc34)CC2)c2ccncc2c1 | > 50 | > 50 µM |  |  | 32 | > 50 | > 50 | CC50 ([1]; vero c1008): > 50 µM |
| CC(C)CNC(=O)c1cc(Cl)ccc1NS(=O)(=O)c1ccc(Oc2ccccc2Cl)cc1 |  |  | 4.76 | > 10 | 6.5 | > 50 | > 50 | CC50 ([2]; veroe6/tmprss2): > 50 µM |
| O=C(Nc1ccc2c(c1)CNCCC2)c1cc(Cl)cc2[nH]ncc12 | > 50 | < 0.023 µM | 1.42 | 2.18 |  |  |  |  |
| C[C@@]1(O)[C@H](O)[C@@H](CO)O[C@H]1n1ccc2c(N)ncnc21 [BETA-2'-C-METHYL-7-DEAZA-ADENOSINE] | > 10 |  | > 50 |  |  | > 10 | > 10 | CC50 ([1]; vero c1008): 24.6 µM and > 200 µM; CC50 ([4]; vero c1008, p-gp concentration 100 nM): > 50 µM; CC50 [4, 9]: > 200 µM |
| O=C(Nc1cc(Cl)cc(C(=O)Nc2cccc(-c3nnn[nH]3)c2)c1)OCc1ccccc1 | > 50 | 0.117 µM |  |  |  | > 50 | > 50 |  |
| CC(C)(C)NC(=O)[C@H](Nc1cccc(-c2nn[nH]n2)c1)c1cc(Cl)cc(NC(=O)OCc2ccccc2)c1 | > 50 | > 50 µM | > 50 | 2.78 |  |  |  |  |
| Cc1ccc(NC(=O)c2cc(Cl)cc(NC(=O)OCc3ccccc3)c2)cc1CN | 15 |  | 5.18 | 4.33 |  | 6.64 | 8.104 | CC50 ([2]; veroe6/tmprss2): 15.2 µM; CC50 [4, 8]: 5.8 µM |
| O=C(Nc1ccc2c(c1)CNC2)c1cc(Br)cc2[nH]c(Cc3ccccc3)nc12 | 16.5 | 0.199 µM | 11.6 | 9.98 |  |  |  |  |
| O=C(O)c1cc(Oc2ccc(F)cc2)c(F)cc1NS(=O)(=O)c1ccc(Oc2ccccc2Cl)cc1 | > 50 |  |  | 5.31 | 20 |  |  | CC50 ([2]; veroe6/tmprss2): 44 µM |
| CCc1nc2c(C(=O)Nc3ccc4c(c3)CNC4)cc(Br)cc2[nH]1 | 33.5 | 0.32 µM | > 50 | > 50 |  |  |  |  |
